Counter-ions that a name gives are not always drawn.
How the values were obtained:
[1] = target: CDK9/CyclinT1 (Homo sapiens (Human), UniProt P50750); test: In vitro enzymatic inhibitory activity test, CDK9; format: biochemical; details: Caliper mobility shift, 180 min at 27° C.
Experimental: (§1) CDK7/CyclinH was diluted in a test buffer solution (20 mM MES PH6.75, 0.01% Tween20, 50 ug/mL BSA, 6 mM MgCl2) to obtain a corresponding enzyme solution with a 2.4× concentration. CDK2/CyclinE1 was diluted in a test buffer solution (20 mM MES PH6.75, 0.01% Tween20, 50 ug/mL BSA, 6 mM MgCl2) to obtain a corresponding enzyme solution with a 2.4× concentration. CDK9/CyclinT1 was diluted in a test buffer solution (20 mM MES PH6.75, 0.01% Tween20, 50 ug/mL BSA, 10 mM MgCl2) to obtain a corresponding enzyme solution with a 2.4× concentration. CDK12/CyclinK was diluted in a test buffer solution (80 mM MES PH6.5, 0.01% Tween20, 50 ug/mL BSA, 10 mM MgCl2) to obtain a corresponding enzyme solution with a 2.4× concentration. The compounds were dissolved in dimethyl sulfoxide (DMSO) at a concentration of 10 mM. […] 2 ul of a test compound solution was mixed with 5 ul of enzyme solution. After incubating for 10 min, 5 ul of the mixed solution of the polypeptide substrate and ATP was added. After incubating at 27° C. for 180 min, 4 uL of EDTA with a 120 mM concentration was added to each sample to stop the reaction. […] A CDK9/cyclin TI complex (8 nM) and a “5-FAM-CDK9tide” peptide substrate (2 μM, synthetic fluorophore labeled peptide having the following sequence: 5-FAM-GSRTPMY-NH2, where 5-FAM was as defined above, and NH2 represented C-terminal amide) were used for testing the CDK9 inhibition. […] A CDK2/cyclin E1 complex (0.5 nM) and the “5-FAM-CDK7tide” (2 μM) as defined above were used for testing the CDK2 inhibition.
(§2) Electrophoretic separation was performed on Caliper EZ Reader II by means of a fluorogenic substrate and a phosphorylated product to analyze the reaction mixture. Data were calculated by using GraphPad Prism version 6.0. IC50 values were adjusted by means of a nonlinear regression model using a dose-response curve.

[2] = tested on: A2780 cells; test: Cell bioactivity detection (CyQuant), A2780; format: cell-based, human; details: ovarian carcinoma cells A2780, 72 hours
Experimental: (§3) Trypsinization was performed on A2780 and HCC70 cells. Cell suspensions were respectively transferred to 15 mL of centrifuge tubes and centrifuged at 800 rpm for 5 min. The supernatant was discarded. Resuspension in a fresh culture medium (RPMI 1640+10% FBS) was performed. After counting, the cells were inoculated at 2000/well in a 384-well plate (50 φL of 1640+10% FBS culture medium was added to the 2nd line and the 23rd line of the 384-well plate, and 50 μL of DPBS was added to surrounding wells). Incubation in an incubator (37° C., 5% CO2) was performed overnight.
(§4) The compound was added to the well plate the next day. The compound had the highest concentration of 10 μM and was diluted at the ratio of 1:4 to form 9 concentrations. The positive compound Paclitaxel had the highest concentration of 1 μM and was diluted at the ratio of 1:3 to form 9 concentrations. The DMSO content of each well was unified to 0.2%. A cell plate was centrifuged at 800 rpm for 30 seconds. Incubation for 72 hours in an incubator (37° C., 5% CO2) was performed. On the fourth day, a Cyquant reagent (3×) was prepared according to kit instructions. Each 384-well plate was prepared in the following proportions: DPBS: 11.568 mL, CyQuant® Direct nucleic acid stain: 72 μL, CyQuant® Direct background suppressor: 360 ILL. The plates were uniformly mixed and placed for standby application at room temperature. The cell plate was taken out and placed at room temperature to be balanced for 30 min. 25 μL of Cyquant reagent (3×) was dispensed to the cells in each well of the 384-well plates by using a Multi-drop dispenser. Incubation at 37° C. for 60 or more minutes was performed. The plates were read by Acumen (Acumen was configured to have a 488 nm excitation wavelength). IC50 results were analyzed by XLFIT5 of the IDBS company.

[3] = target: CDK2/cyclin E1 complex (Homo sapiens (Human), UniProt P24941); test: In vitro enzymatic inhibitory activity test, CDK2; format: biochemical; details: Caliper mobility shift, 180 min at 27° C.
Experimental: CDK7/CyclinH was diluted in a test buffer solution (20 mM MES PH6.75, 0.01% Tween20, 50 ug/mL BSA, 6 mM MgCl2) to obtain a corresponding enzyme solution with a 2.4× concentration. CDK2/CyclinE1 was diluted in a test buffer solution (20 mM MES PH6.75, 0.01% Tween20, 50 ug/mL BSA, 6 mM MgCl2) to obtain a corresponding enzyme solution with a 2.4× concentration. CDK9/CyclinT1 was diluted in a test buffer solution (20 mM MES PH6.75, 0.01% Tween20, 50 ug/mL BSA, 10 mM MgCl2) to obtain a corresponding enzyme solution with a 2.4× concentration. CDK12/CyclinK was diluted in a test buffer solution (80 mM MES PH6.5, 0.01% Tween20, 50 ug/mL BSA, 10 mM MgCl2) to obtain a corresponding enzyme solution with a 2.4× concentration. […] 2 ul of a test compound solution was mixed with 5 ul of enzyme solution. After incubating for 10 min, 5 ul of the mixed solution of the polypeptide substrate and ATP was added. After incubating at 27° C. for 180 min, 4 uL of EDTA with a 120 mM concentration was added to each sample to stop the reaction. […] A CDK9/cyclin TI complex (8 nM) and a “5-FAM-CDK9tide” peptide substrate (2 μM, synthetic fluorophore labeled peptide having the following sequence: 5-FAM-GSRTPMY-NH2, where 5-FAM was as defined above, and NH2 represented C-terminal amide) were used for testing the CDK9 inhibition. […] A CDK2/cyclin E1 complex (0.5 nM) and the “5-FAM-CDK7tide” (2 μM) as defined above were used for testing the CDK2 inhibition.
as §2

[4] = target: CDK7/cyclin H/MAT1 complex (Homo sapiens (Human), UniProt P50613); test: In vitro enzymatic inhibitory activity test, CDK7; format: biochemical; details: Caliper mobility shift, 180 min at 27° C.
Experimental: as §1, §2

[5] = target: CDK12(aa686-1082)/cyclin K complex (Homo sapiens (Human), UniProt Q9NYV4); test: In vitro enzymatic inhibitory activity test, CDK12; format: biochemical; details: Caliper mobility shift, 180 min at 27° C.
Experimental: as §1, §2

[6] = tested on: HCC70 cells; test: Cell bioactivity detection (CyQuant), HCC70; format: cell-based; details: human breast cancer cells HCC70, 72 hours
Experimental: as §3, §4

Sequence of CDK7/cyclin H/MAT1 complex (P50613 whole entry, species assumed): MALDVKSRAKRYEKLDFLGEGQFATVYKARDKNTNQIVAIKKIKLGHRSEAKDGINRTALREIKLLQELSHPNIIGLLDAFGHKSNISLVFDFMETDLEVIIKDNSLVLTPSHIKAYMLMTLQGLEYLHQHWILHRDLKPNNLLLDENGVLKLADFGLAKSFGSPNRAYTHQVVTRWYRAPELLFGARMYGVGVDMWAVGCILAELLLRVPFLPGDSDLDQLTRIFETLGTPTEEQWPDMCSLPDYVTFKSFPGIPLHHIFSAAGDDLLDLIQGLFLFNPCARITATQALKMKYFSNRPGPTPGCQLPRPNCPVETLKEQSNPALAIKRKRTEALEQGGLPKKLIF
Sequence of CDK7/cyclin H/MAT1 complex (P51946 whole entry partner, species assumed): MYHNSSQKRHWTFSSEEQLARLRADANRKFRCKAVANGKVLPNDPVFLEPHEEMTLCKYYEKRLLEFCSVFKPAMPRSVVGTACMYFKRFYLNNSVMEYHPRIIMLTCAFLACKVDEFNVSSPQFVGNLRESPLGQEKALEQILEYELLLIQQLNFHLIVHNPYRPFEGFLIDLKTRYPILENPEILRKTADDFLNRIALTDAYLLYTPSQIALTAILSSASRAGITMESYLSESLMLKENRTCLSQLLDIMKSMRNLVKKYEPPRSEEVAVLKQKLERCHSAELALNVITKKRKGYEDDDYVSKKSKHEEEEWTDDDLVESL
Sequence of CDK7/cyclin H/MAT1 complex (P51948 whole entry partner, species assumed): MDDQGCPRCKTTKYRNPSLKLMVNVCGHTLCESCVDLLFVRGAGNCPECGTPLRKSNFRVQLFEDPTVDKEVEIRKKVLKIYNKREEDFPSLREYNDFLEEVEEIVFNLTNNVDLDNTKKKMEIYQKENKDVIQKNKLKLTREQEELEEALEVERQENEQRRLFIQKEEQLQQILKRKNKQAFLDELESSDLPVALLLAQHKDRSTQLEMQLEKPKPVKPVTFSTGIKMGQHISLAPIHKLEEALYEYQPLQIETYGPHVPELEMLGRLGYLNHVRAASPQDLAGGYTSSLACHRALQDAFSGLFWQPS
Sequence of CDK9/CyclinT1 (P50750 whole entry, species assumed): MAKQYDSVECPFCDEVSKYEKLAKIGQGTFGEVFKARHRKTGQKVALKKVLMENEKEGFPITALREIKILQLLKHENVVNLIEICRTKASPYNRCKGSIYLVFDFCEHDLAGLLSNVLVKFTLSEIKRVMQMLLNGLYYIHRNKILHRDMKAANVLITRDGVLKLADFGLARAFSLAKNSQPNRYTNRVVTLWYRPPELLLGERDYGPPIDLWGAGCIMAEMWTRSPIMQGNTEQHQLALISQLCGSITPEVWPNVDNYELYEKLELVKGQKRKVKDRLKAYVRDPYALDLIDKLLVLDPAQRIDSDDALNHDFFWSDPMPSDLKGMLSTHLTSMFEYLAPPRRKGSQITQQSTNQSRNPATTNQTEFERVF
Sequence of CDK9/CyclinT1 (O60563 whole entry partner, species assumed): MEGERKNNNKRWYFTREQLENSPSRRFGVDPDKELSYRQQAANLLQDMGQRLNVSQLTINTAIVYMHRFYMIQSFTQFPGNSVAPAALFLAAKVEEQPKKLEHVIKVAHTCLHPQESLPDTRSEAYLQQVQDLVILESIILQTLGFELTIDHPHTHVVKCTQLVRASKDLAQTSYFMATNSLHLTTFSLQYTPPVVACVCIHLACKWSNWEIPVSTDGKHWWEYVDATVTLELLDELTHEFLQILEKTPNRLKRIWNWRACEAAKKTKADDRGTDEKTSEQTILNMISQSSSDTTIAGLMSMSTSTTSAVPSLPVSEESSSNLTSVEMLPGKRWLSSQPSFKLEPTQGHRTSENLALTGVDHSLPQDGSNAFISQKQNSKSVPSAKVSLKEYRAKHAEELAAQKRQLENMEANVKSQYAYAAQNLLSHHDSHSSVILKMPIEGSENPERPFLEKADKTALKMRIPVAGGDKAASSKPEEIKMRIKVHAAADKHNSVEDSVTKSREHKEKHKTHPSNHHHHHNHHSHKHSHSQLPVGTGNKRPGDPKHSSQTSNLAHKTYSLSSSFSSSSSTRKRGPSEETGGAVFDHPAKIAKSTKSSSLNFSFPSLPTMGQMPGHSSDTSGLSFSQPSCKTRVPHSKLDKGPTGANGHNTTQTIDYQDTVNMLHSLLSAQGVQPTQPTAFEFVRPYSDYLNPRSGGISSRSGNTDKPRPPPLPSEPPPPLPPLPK
Sequence of CDK12(aa686-1082)/cyclin K complex (Q9NYV4 686-1082, species assumed): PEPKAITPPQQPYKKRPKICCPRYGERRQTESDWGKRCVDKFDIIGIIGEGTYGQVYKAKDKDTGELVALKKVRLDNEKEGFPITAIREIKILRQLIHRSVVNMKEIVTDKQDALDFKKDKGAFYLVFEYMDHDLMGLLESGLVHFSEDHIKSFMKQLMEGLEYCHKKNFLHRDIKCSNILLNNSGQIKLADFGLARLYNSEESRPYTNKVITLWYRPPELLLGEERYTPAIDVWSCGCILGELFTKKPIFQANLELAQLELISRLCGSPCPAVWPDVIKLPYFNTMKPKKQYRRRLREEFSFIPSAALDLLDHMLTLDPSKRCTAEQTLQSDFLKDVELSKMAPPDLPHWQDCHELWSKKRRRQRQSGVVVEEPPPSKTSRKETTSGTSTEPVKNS
Sequence of CDK12(aa686-1082)/cyclin K complex (O75909 whole entry partner, species assumed, the tested form may be a part): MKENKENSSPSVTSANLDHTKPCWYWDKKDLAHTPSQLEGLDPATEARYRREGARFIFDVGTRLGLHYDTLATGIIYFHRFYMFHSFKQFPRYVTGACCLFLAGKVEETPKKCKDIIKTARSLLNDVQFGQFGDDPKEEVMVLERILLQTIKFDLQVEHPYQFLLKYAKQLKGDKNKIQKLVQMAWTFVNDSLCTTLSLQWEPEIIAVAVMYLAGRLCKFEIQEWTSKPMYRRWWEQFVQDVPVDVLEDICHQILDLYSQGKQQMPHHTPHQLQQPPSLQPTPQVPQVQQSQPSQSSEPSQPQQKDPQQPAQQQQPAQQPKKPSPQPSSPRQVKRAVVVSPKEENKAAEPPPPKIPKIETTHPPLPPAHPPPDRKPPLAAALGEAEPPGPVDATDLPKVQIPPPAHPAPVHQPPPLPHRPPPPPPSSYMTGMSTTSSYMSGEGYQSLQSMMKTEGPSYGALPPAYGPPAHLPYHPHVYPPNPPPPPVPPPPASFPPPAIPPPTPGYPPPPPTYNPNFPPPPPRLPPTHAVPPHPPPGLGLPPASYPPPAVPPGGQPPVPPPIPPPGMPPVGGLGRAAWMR

SMILES	IC50 [1] [nM]	IC50 ([2]; Homo sapiens, A2780, 72 h) [nM]	IC50 [3] [nM]	IC50 [4] [nM]	IC50 [5] [nM]	IC50 ([6]; Homo sapiens, HCC70, 72 h) [nM]	IC50 [2] [nM]	IC50 [6] [nM]
C[C@@H]1OCC2(CCN(c3ccc4c(-c5nc(N[C@H]6CCCNC6)ncc5C(F)(F)F)c[nH]c4n3)CC2)[C@@H]1N [Compound 12, (3S,4S)-3-methyl-8-(3-(2-(((S)-piperidin-3-yl)amino)-5-(trifluoromethyl)pyrimidin-4-yl)-1H-pyrrol[2,3-b]pyridin-6-yl)-2-oxa-8-azaspiro[4.5]decan-4-amine]	2790	90.1	3790	17.4	1170	69		
FC(F)(F)c1cnc(N[C@H]2CCCNC2)nc1-c1c[nH]c2nc(C3CCOCC3)ccc12 [Compound 28, (S)—N-(piperidin-3-yl)-4-(6-(tetrahydro-2H-pyran-4-yl)-1H-pyrrolo[2,3-b]pyridin-3-yl)-5-(trifluoromethyl)pyrimidine-2-amine formate]	3630	7.8	3470	6.96	1100	7.7		
FC(F)(F)c1cnc(N[C@H]2CCCNC2)nc1-c1c[nH]c2nc(N3CC4COCC4C3)ccc12 (stereo partly drawn) [Compound 5, N—((S)-piperidin-3-yl)-4-(6-(tetrahydro-1H-furan[3,4-c]pyrrol-5(3H)-yl)-1H-pyrrolo[2,3-b]pyridin-3-yl)-5-(trifluoromethyl)pyrimidine-2-amine]	907	17	2250	12.1	1020	19		
CC1(C)CC[C@H](Nc2ncc(C(F)(F)F)c(-c3c[nH]c4nc(N5CCOCC5)ccc34)n2)CN1 [Compound 60, (S)—N-(6,6-dimethylpiperidin-3-yl)-4-(6-morpholinyl-1H-pyrrol[2,3-b]pyridin-3-yl)-5-(trifluoromethyl)pyrimidine-2-amine]	8070	36	> 10000	8.79	> 10000	475		
C[C@H]1COCCN1c1ccc2c(-c3nc(N[C@@H]4CNC[C@H](F)C4)ncc3C(F)(F)F)c[nH]c2n1 [Compound 74]	> 50000		27300	10.2	12000		177	199
FC(F)(F)c1cnc(N[C@H]2CCCNC2)nc1-c1c[nH]c2nc(C3CCOC3)ccc12 (single isomer, unassigned) [Compound 107]	1440	6.27	1510	6.4	567	6.77		
C[C@H]1COCCN1c1ccc2c(-c3nc(N[C@@H]4CNC[C@@H](F)C4)ncc3C(F)(F)F)c[nH]c2n1 [Compound 73, N-((3S,5S)-5-fluoropyridin-3-yl)-4-(6-((S)-3-methylmorpholinyl)-1H-pyrrol[2,3-b]pyridin-3-yl)-5-(trifluoromethyl)pyrimidine-2-amine]	3350		4290	11.5	3380		6.2	35
C[C@H]1COCCN1c1nc2[nH]cc(-c3nc(N[C@H]4CCCNC4)ncc3C(F)(F)F)c2cc1F [Compound 75, 4-(5-fluoro-6-((S)-3-methylmorpholinyl)-1H-pyrrol[2,3-b]pyridin-3-yl)-N—((S)-piperidin-3-yl)-5-(trifluoromethyl)pyrimidine-2-amine formate]	5930	7.4	2380	8.5	3340	9.2		
FC(F)(F)c1cnc(N[C@H]2CCCNC2)nc1-c1c[nH]c2nc(N3C[C@@H]4C[C@H]3CO4)ccc12 [Compound 13, 4-(6-((1S,4S)-2-oxa-5-azabicyclo[2.2.1]heptan-5-yl)-1H-pyrrolo[2,3-b]pyridin-3-yl)-N—((S)-piperidin-3-yl)-5-(trifluoromethyl)pyrimidine-2-amine]	3430	35.2	2670	7.05	2640	29		
FC(F)(F)c1cnc(N[C@H]2CCCNC2)nc1-c1c[nH]c2nc(C3CCOC3)ccc12 (stereo partly drawn) [Compound 29, N—((S)-piperidin-3-yl)-4-(6-(tetrahydrofuran-3-yl)-1H-pyrrol[2,3-b]pyridin-3-yl)-5-(trifluoromethyl)pyrimidine-2-amine formate]	2480	2.1	1260	7.08	855	3.1		
FC(F)(F)c1cnc(N[C@H]2CCCNC2)nc1-c1c[nH]c2nc(N3C[C@H]4C[C@@H]3CO4)ccc12 [Compound 2, 4-(6-((1R,4R)-2-oxa-5-azabicyclo[2.2.1]heptan-5-yl)-1H-pyrrolo[2,3-b]pyridin-3-yl)-N—((S)-piperidin-3-yl)-5-(trifluoromethyl)pyrimidine-2-amine]	1040	16	4380	10.4	1840	15		
O=S1(=O)CCN(c2ccc3c(-c4nc(N[C@H]5CCCNC5)ncc4C(F)(F)F)c[nH]c3n2)CC1 [Compound 25, (S)-4-(3-(2-(piperidine-3-amino)-5-(trifluoromethyl)pyrimidin-4-yl)-1H-pyrrolo[2,3-b]pyridin-6-yl)thiomorpholine-1,1-dioxide]	402	7.9	1040	6.5	277	11		
FC(F)(F)c1cnc(N[C@H]2CCCNC2)nc1-c1c[nH]c2nc(N3CCC4(CCOC4)CC3)ccc12 [Compound 9, (S)-4-(6-(2-oxa-8-azaspiro[4.5]decan-8-yl)-1H-pyrrolo[2,3-b]pyridin-3-yl)-N-(piperidin-3-yl)-5-(trifluoromethyl)pyrimidine-2-amine]	4530	36.3	7290	28.7	1270	44		

— patent US20240132489A1, “AROMATIC HETEROCYCLIC COMPOUND, PHARMACEUTICAL COMPOSITION, AND USE THEREOF” (GT APEIRON THERAPEUTICS LIMITED, priority 2020, published 2024)
